# In article PMC13350973, “Allosteric ensembles elucidate mechanisms of inhibition in the human soluble epoxide hydrolase” (Communications Biology, 2026):
# Where a chain is given by its changes, count along the chain named.
# Key:
# [1] = target: T1, human soluble epoxide hydrolase (sEH) C-terminal domain (Homo sapiens, UniProt P34913); experiment: single injection method kinetic ITC (KM); assay type: biochemical
# T1 construct: gene EPHX2; CTD, amino acids 230–555
# T1 sequence (P34913 230-555): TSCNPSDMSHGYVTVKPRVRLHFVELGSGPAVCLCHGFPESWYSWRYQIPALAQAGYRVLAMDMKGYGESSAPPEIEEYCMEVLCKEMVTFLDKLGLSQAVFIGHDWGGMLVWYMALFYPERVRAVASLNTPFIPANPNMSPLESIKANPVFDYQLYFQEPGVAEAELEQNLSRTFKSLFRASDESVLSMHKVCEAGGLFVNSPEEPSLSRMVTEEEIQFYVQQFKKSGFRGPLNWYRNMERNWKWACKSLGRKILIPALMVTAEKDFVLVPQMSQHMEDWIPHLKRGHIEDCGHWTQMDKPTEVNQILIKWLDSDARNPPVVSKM
# [2] = target: T2, human soluble epoxide hydrolase (sEH) C-terminal domain (Homo sapiens, UniProt P34913, C423S); experiment: single injection method kinetic ITC (KM); assay type: biochemical
# T2 construct: gene EPHX2; CTD, amino acids 230–555
# T2 sequence (P34913 230-555 C423S): T1 sequence (P34913 230-555) with C194S
# [3] = target: T3, human soluble epoxide hydrolase (sEH) C-terminal domain (Homo sapiens, UniProt P34913, C522S); experiment: single injection method kinetic ITC (KM); assay type: biochemical
# T3 construct: gene EPHX2; CTD, amino acids 230–555
# T3 sequence (P34913 230-555 C522S): T1 sequence (P34913 230-555) with C293S
# [4] = target: T1, human soluble epoxide hydrolase (sEH) C-terminal domain; experiment: spectrofluorometric hydrolysis assay with purified sEH CTD; assay type: biochemical
# [5] = target: T4, human soluble epoxide hydrolase (sEH) C-terminal domain, M3 mutant (Homo sapiens, UniProt P34913, R410A/C423S/S439A/R440A/K495A); experiment: UV spectra of washed covalent adduct of purified protein; fluorometric PHOME specific activity assay; assay type: binding
# T4 construct: gene EPHX2; CTD, amino acids 230–555
# T4 sequence (P34913 230-555 R410A/C423S/S439A/R440A/K495A): T1 sequence (P34913 230-555) with R181A, C194S, S210A, R211A, K266A
structure (smiles),measurement,setting,value
CCCCCC1OC1C/C=C\C/C=C\C/C=C\CCCC(=O)O (centres unmarked) [14(15)-EET],Km,[1],11.2 ± 0.46 µM
same,Km,[2],14.6 ± 0.52 µM
same,Km,[3],24 ± 2.58 µM
"COc1ccc2cc(C(C#N)OC(=O)CC3OC3c3ccccc3)ccc2c1 (centres unmarked) [PHOME, 3-phenyl-cyano(6-methoxy-2-naphthalenyl)methylester-2-oxiraneacetic acid]",spectrofluorometric hydrolysis assay with purified sEH CTD,[4],"(PHOME), which upon sEH enzymatic hydrolysis releases the fluorescent product 6-methoxy-2-naphtaldeyde (6M2N)"
CCCCC/C=C/C=C1/C(=O)C=C[C@@H]1C/C=C\CCCC(=O)O [15d-PGJ2],UV spectra of washed covalent adduct of purified protein; fluorometric PHOME spe,[5],8.2 fold reduction in enzymatic specific activity
